Experimental data as given in ChEMBL document CHEMBL4257491, “Discovery of indoleamine 2,3-dioxygenase inhibitors using machine learning based virtual screening” (Medchemcomm, 2018).
pIC50: −log10 of the molar value. Calls of active or inactive are those of the source. The calls are words filed in the database; no cut-off is given here.

How the values were obtained:
[1] = molecular target: T1, Indoleamine 2,3-dioxygenase 1 (Homo sapiens, UniProt P14902); test: Inhibition of IDO1 in IFNgamma-stimulated human HuH7 cells at 10 uM using L-tryptophan as substrate measured after 24 hrs relative to control
Target sequence in this assay (P14902 whole entry, looked up): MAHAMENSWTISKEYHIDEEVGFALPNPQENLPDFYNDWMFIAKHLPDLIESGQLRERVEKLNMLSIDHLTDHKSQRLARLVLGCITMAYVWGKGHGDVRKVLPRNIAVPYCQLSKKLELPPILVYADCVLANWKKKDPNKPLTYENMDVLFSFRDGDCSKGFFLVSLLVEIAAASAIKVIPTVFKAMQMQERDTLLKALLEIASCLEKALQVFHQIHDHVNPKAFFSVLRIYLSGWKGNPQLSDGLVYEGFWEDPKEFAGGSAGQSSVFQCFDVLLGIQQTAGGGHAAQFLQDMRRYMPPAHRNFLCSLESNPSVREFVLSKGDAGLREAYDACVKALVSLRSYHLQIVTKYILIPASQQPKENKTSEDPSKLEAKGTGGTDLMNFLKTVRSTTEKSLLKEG

[2] = molecular target: T1, Indoleamine 2,3-dioxygenase 1; test: Binding affinity to human HuH7 cell derived IDO1 expressed in Escherichia coli BL21 codon plus up to 10 uM by surface plasmon resonance analysis
Target sequence in this assay (P14902 whole entry, looked up): as above

[3] = Cytotoxicity against human HuH7 cells assessed as survival rate at 10 uM after 24 hrs by MTT assay relative to control; type: cell-based, Huh-7; details: read-out: Survival
[4] = molecular target: T1, Indoleamine 2,3-dioxygenase 1; test: Inhibition of human HuH7 cell derived IDO1 expressed in Escherichia coli BL21 codon plus using L-tryptophan as substrate measured after 1 hr by fluorescence assay
Target sequence in this assay (P14902 whole entry): as the sequence (P14902 whole entry, looked up) above

[5] = molecular target: T1, Indoleamine 2,3-dioxygenase 1; test: Inhibition of IDO1 in IFNgamma-stimulated human HuH7 cells at 1 uM using L-tryptophan as substrate measured after 24 hrs relative to control
Target sequence in this assay (P14902 whole entry, looked up): as above

[6] = Cytotoxicity against human HuH7 cells assessed as survival rate at 1 uM after 24 hrs by MTT assay relative to control; type: cell-based, Huh-7; details: read-out: Survival

Row | Compound | inhibition [1] [%] | Activity [2] | viability at 24 h, 10 µM [3] [%] | pIC50 [4] | inhibition [5] [%] | viability at 24 h, 1 µM [6] [%]
1 | Cc1c(-c2c(C)c(O)c3ccccc3c2O)oc2c1C(=O)C(=O)c1c-2ccc2c1CCCC2(C)C | 21 | Active | 97.1 | 5.39 | – | –
2 | Cc1cccc2c3c(ccc12)C1=C(C(=O)C3=O)C(C)CO1 (configuration not stated) | – | Active | – | 5.89 | 54.3 | 94.7
3 | Cc1coc2c1C(=O)C(=O)c1c-2ccc2c1C=CCC2(C)C | – | Active | – | 5.33 | 66.7 | 93
